{
  "source": "patent US4814336A",
  "about": "“Method of treating a vascular obstructive lesion resulting from restricted blood circulation” (CHINOIN Gyogyszer es Vegyeszeti Termekek Gyara Rt, priority 1985, dated 1989)",
  "key": {"[1]": {"tested_on": "erythrocytes", "conditions": "Angiology 36, 4, 226-234 (1985); cited from earlier work"}, "[2]": {"tested_on": "patients suffering from cerebral obliterating vascular diseases", "experiment": "ECHO examination", "type": "in vivo, human patients", "conditions": "450 mg/day orally, 10 days; for ECHO deteriorated (number of patients) / ECHO improved (number of patients) / ECHO unchanged (number of patients): total 9 (Trental), 8 (Depogen)", "procedure": "(§1) The clinical examinations carried out on patients suffering from lower leg and cerebral obliterating vascular diseases gave the following results: 41 patients were treated for 10 days in a dose of 450 mg/day Depogen or Trental orally (beside 5 healthy controls)."}, "[3]": {"tested_on": "erythrocytes", "experiment": "In vitro filtrability of erythrocytes (filtration half-time), statements on both erythrocyte types", "type": "cell-based, human", "conditions": "for filtrability of the erythrocytes (result in words): FIGS. 1 and 2, T1/2 decreased", "procedure": "(§2) For the examination of the in vitro filtrability of the erythrocytes the method of Teitel (Nouv. Rev. Franc. Haematol. 7. 195 (1967)) was used where the filtration rate of concentrated erythrocyte suspension was measured. In the test fresh, normal erythrocytes, fresh in hyperosmotic solution shrunken erythrocytes and erythrocytes stored in CPD blood-conserving solution contracted for 30 days at +4° C. were used. The results are given in FIGS. 1 and 2 (the filtrability of the contracted erythrocytes and that of the erythrocytes stored for 30 days were given as the % of the filtrability of the control fresh, normal erythrocytes.)\n(§3) The effect depends in the case of both drugs on the doses. The optimal effect may be achieved with Depogen in lower concentration interval (0.5 to 1.5 μumol) than in case of Trental (5 to 10 μumoles)."}, "[4]": {"tested_on": "patients suffering from lower leg obliterating vascular diseases", "experiment": "Clinical examination, lower leg obliteration", "type": "in vivo, human patients", "conditions": "450 mg/day orally, 10 days; Depogen compared with Trental", "procedure": "as §1"}, "[5]": {"tested_on": "erythrocytes of patients with lower leg and cerebral obliterating vascular diseases", "experiment": "Erythrocyte filtrability (T1/2) of patients with lower leg and cerebral obliterating vascular diseases after 10 days treatment", "type": "in vivo, human patients", "conditions": "450 mg/day orally; for T1/2 average of erythrocyte filtration after treatment: before treatment 18.15 min, healthy control 8.7 min", "procedure": "as §1"}, "[6]": {"tested_on": "patients suffering from cerebral obliterating vascular diseases", "experiment": "EEG examination", "type": "in vivo, human patients", "conditions": "450 mg/day orally, 10 days; for EEG deteriorated (number of patients) / EEG improved (number of patients) / EEG unchanged (number of patients): total 9 (Trental), 8 (Depogen)", "procedure": "as §1"}, "[7]": {"tested_on": "contracted (shrunken) erythrocytes", "experiment": "In vitro filtrability (filtration half-time T1/2) of contracted (shrunken) erythrocytes, method of Teitel", "type": "cell-based, human", "conditions": "from ID50", "procedure": "FIG. 1 is a set of two graphs in which the filtration half-times (T1/2) for contracted (shrunken) erythrocytes are plotted along the Y-axis as a percentage of the filtration half-time for normal erythrocytes (control) against doses of respectively Trental and Depogen.\nas §2, §3"}, "[8]": {"tested_on": "erythrocytes stored for 30 days", "experiment": "In vitro filtrability (filtration half-time T1/2) of erythrocytes stored for 30 days, method of Teitel", "type": "cell-based, human", "conditions": "from ID50", "procedure": "FIG. 2 is a set of two graphs in which the filtration half-time (T1/2) for erythrocytes stored for 30 days are plotted along the Y-axis as a percentage of the filtration half-time for normal erythrocytes (control) against doses of respectively Trental and Depogen.\nas §2, §3"}, "[9]": {"tested_on": "patients suffering from cerebral obliterating vascular diseases", "experiment": "Clinical examination, cerebral obliterating vascular disease, symptoms", "type": "in vivo, human patients", "conditions": "450 mg/day orally, 10 days", "procedure": "as §1"}, "[10]": {"tested_on": "extremital vascular resistence", "conditions": "patients, doses up to 300 mg/day; cited from earlier work"}},
  "data": [
    {"smiles": "CC(=O)CCCCn1c(=O)c2c(ncn2C)n(C)c1=O", "note": "[Trental, 3,7-dihydro-3,7-dimethyl-1--(5-oxohexyl)-1H-purine-2,6-dione, reference compound]", "values": [
      {"measurement": "rheological parameters of the blood, plasticity of the erythrocytes", "setting": "[1]", "result": "improves some rheological parameters of the blood, first of all the plasticity of the erythrocytes"},
      {"measurement": "ECHO unchanged (% of patients)", "setting": "[2]", "result": 100, "unit": "%"},
      {"measurement": "ECHO deteriorated (number of patients)", "setting": "[2]", "result": 0},
      {"measurement": "ECHO improved (number of patients)", "setting": "[2]", "result": 0},
      {"measurement": "ECHO unchanged (number of patients)", "setting": "[2]", "result": 9},
      {"measurement": "filtrability of the erythrocytes (result in words)", "setting": "[3]; in vitro", "result": "increase the filtrability of the erythrocytes significantly"},
      {"measurement": "optimal effect on filtrability, concentration interval", "setting": "[3]; in vitro, Trental", "result": "5 to 10", "unit": "μumoles"},
      {"measurement": "effect in lower leg obliteration", "setting": "[4]", "result": "the two drugs have the same effect"},
      {"measurement": "filtrability of the erythrocytes after treatment (result in words)", "setting": "[5]", "result": "the treatment was also in this case successful"},
      {"measurement": "T1/2 average of erythrocyte filtration after treatment", "setting": "[5]", "result": 12.1, "unit": "min"},
      {"measurement": "EEG improved (% of patients)", "setting": "[6]", "result": 44.5, "unit": "%"},
      {"measurement": "EEG unchanged (% of patients)", "setting": "[6]", "result": 55.5, "unit": "%"},
      {"measurement": "EEG deteriorated (number of patients)", "setting": "[6]", "result": 0},
      {"measurement": "EEG improved (number of patients)", "setting": "[6]", "result": 4},
      {"measurement": "EEG unchanged (number of patients)", "setting": "[6]", "result": 5}
    ]},
    {"smiles": "CCOc1ccc(CC2=NCCc3cc(OCC)c(OCC)cc32)cc1OCC", "note": "[Depogen, 1-(3',4'-diethoxybenzyl)-6,7-diethoxy-3,4-dihydroisoquinolinium-theophyllin-7-acetate]", "values": [
      {"measurement": "Rel. activity Depogen/Trental", "setting": "[7]", "result": 16.3},
      {"measurement": "Rel. activity Depogen/Trental", "setting": "[8]", "result": 31.6},
      {"measurement": "ECHO improved (% of patients)", "setting": "[2]", "result": 12.5, "unit": "%"},
      {"measurement": "ECHO unchanged (% of patients)", "setting": "[2]", "result": 87.5, "unit": "%"},
      {"measurement": "ECHO deteriorated (number of patients)", "setting": "[2]", "result": 0},
      {"measurement": "ECHO improved (number of patients)", "setting": "[2]", "result": 1},
      {"measurement": "ECHO unchanged (number of patients)", "setting": "[2]", "result": 7},
      {"measurement": "filtrability of the erythrocytes (result in words)", "setting": "[3]; in vitro", "result": "increase the filtrability of the erythrocytes significantly"},
      {"measurement": "times lower concentration exerting the same effect as Trental", "setting": "[3]; in vitro, concentration for the half-maximal effect", "result": "10 to 25", "unit": "times"},
      {"measurement": "optimal effect on filtrability, concentration interval", "setting": "[3]; in vitro, Depogen", "result": "0.5 to 1.5", "unit": "μumol"},
      {"measurement": "filtrability of pathological human erythrocytes (result in words)", "setting": "[3]; proved by both ex vitro and in vivo tests", "result": "increases the filtrability of the pathological human erythrocytes significantly"},
      {"measurement": "effect in lower leg obliteration", "setting": "[4]", "result": "the two drugs have the same effect"},
      {"measurement": "filtrability of the erythrocytes after treatment (result in words)", "setting": "[5]", "result": "the filtrability of the erythrocytes has been normalized"},
      {"measurement": "T1/2 average of erythrocyte filtration after treatment", "setting": "[5]", "result": 9.53, "unit": "min"},
      {"measurement": "EEG improved (% of patients)", "setting": "[6]", "result": 87.5, "unit": "%"},
      {"measurement": "EEG unchanged (% of patients)", "setting": "[6]", "result": 12.5, "unit": "%"},
      {"measurement": "EEG deteriorated (number of patients)", "setting": "[6]", "result": 0},
      {"measurement": "EEG improved (number of patients)", "setting": "[6]", "result": 7},
      {"measurement": "EEG unchanged (number of patients)", "setting": "[6]", "result": 1},
      {"measurement": "effect in cerebral vascular disease, symptoms", "setting": "[9]", "result": "the symptoms have decreased"},
      {"measurement": "peripheral vasodilating effect and extremital vascular resistence", "setting": "[10]", "result": "has a peripheral vasodilating effect and decreases the extremital vascular resistence"}
    ]}
  ]
}
